Like-named read-outs stand apart in the source and are kept apart here.
Tests used:
[1] = test system: rat diaphorase; format: biochemical; conditions: 20 μM compound
[2] = test system: rat diaphorase; format: biochemical
[3] = test system: Clostridium diaphorase; format: biochemical
[4] = test system: rat diaphorase; format: biochemical; conditions: 20 μM compound, 40 min
[5] = test system: rat diaphorase; format: biochemical; remark: listed apart in the source
[6] = test system: rat diaphorase; format: biochemical; remark: listed apart in the source
[7] = molecular target: T1, rat diaphorase (Rattus norvegicus, UniProt P05982); format: biochemical; conditions: for FLUs: 1 u/ml rat diaphorase; for Fluorescence time course, Rat: 10 uM NADH
T1 construct: purchased Sigma
T1 sequence (P05982 2-274 limits assumed): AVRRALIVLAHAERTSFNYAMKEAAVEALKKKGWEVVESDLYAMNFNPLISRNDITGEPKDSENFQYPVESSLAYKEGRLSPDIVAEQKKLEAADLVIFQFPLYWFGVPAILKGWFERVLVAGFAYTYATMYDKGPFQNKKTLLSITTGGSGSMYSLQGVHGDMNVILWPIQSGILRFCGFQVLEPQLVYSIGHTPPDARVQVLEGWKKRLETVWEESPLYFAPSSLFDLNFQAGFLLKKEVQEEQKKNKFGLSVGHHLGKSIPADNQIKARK

[8] = test system: Clostridium diaphorase; assay: Fluorescent NADH detection assay, Clostridium diaphorase; format: biochemical; conditions: for FLUs: 1 u/ml Clostridium diaphorase; for Fluorescence time course, Clostridium: 10 uM NADH
Protocol: Each fluorescent substrate (PBI-4412, 4413, 4440, and 4441) was incubated at 920 μM with 0 μM or 10 μM NADH (Sigma) or a titration of NADH (Table 8) and 1 u/ml rat diaphorase (Sigma) or 1 u/ml Clostridium diaphorase (Sigma) in a volume of 100 μl in 50 mM Tris pH 7.5. Single reactions were prepared in the wells of a 96-well black plate at room temperature. Fluorescence was monitored over the course of two hours at excitation and emission wavelengths of 485 and 527, respectively, using a fluorescence plate reader. […] Table 7 and FIGS. 24a-b show the reaction time course with each substrate with 10 uM NADH. Table 8 and FIG. 25 show the NADH titration at 60 minutes with PBI-4440 and 4412 with rat diaphorase.

[9] = test system: HeLa cells; assay: Fluorescent imaging of live cells; format: cell-based; conditions: 10 μM substrate
Protocol: HeLa cells were plated at 40,000 cell/well into wells of an 8-well chambered coverslip and incubated at 37° C.+5% CO2. The media (DMEM) was replaced with warm complete media (with 10% FBS) containing 10 μM PBI-4412, 4413, 4440 or 4441. Cells were then transferred to a confocal microscope for imaging using 10% λ488 nm laser power (4412, 4413, and 4441) or 5% laser power (4440). All images (FIGS. 6a-d) are at 30× magnification.

[10] = NADH no, diaphorase yes (5 u/ml rat)
[11] = NADH yes (10 μM), diaphorase no
[12] = NADH yes (10 μM), diaphorase yes (5 u/ml rat), 20 min
[13] = 20 μM compound, 10 μM NADH, 5 u/ml rat diaphorase, 70 min
[14] = 20 μM compound, no NADH, 5 u/ml rat diaphorase, 70 min
[15] = signal with NADH / without NADH, rat diaphorase
[16] = 20 μM compound, 10 μM NADH, 0.5 u/ml Clostridium diaphorase, 70 min
[17] = 20 μM compound, no NADH, 0.5 u/ml Clostridium diaphorase, 70 min
[18] = signal with NADH / without NADH, Clostridium diaphorase
[19] = ~1 min after LDR with 500 μM menadione, 20 μM compound, 10 μM NADH
[20] = ~1 min after LDR, 20 μM compound, 10 μM NADH
[21] = ~6 min after LDR with 500 μM menadione, 20 μM compound, 10 μM NADH
[22] = ~6 min after LDR, 20 μM compound, 10 μM NADH
[23] = reaction time 0 min, 20 μM compound, 10 μM NADH
[24] = 10 μM NADH, 60 min, substrate 920 μM

CC1=C(C)C(=O)C(C(C)(C)CC(=O)N(C)CCN(C)C(=O)Oc2ccc3nc(C4=N[C@@H](C(=O)O)CS4)sc3c2)=C(C)C1=O [PBI 4312, quinone trimethyllock-C2-diamine luciferin]
Avg RLU ([1]; NADH no, diaphorase no): 4262 RLU | Avg RLU [1, 10]: 3910 RLU | Avg RLU [1, 11]: 3918 RLU | Avg RLU [1, 12]: 197017 RLU | Avg RLU With NADH [2, 13]: 120633 RLU | Avg RLU Without NADH [2, 14]: 4981 RLU | S/B [2, 15]: 24 | Avg RLU With NADH [3, 16]: 29068 RLU | Avg RLU Without NADH [3, 17]: 5311 RLU | S/B [3, 18]: 5.5 | Avg RLU ([4]; NADH 0 μM): 5410 RLU | Avg RLU ([4]; NADH 0.006 μM): 6447 RLU | Avg RLU ([4]; NADH 0.012 μM): 7075 RLU | Avg RLU ([4]; NADH 0.024 μM): 8864 RLU | Avg RLU ([4]; NADH 0.049 μM): 11190 RLU | Avg RLU ([4]; NADH 0.098 μM): 20126 RLU | Avg RLU ([4]; NADH 0.195 μM): 27871 RLU | Avg RLU ([4]; NADH 0.39 μM): 43659 RLU | Avg RLU ([4]; NADH 0.78 μM): 33801 RLU | Avg RLU ([4]; NADH 1.56 μM): 60043 RLU | Avg RLU ([4]; NADH 3.125 μM): 119311 RLU | Avg RLU ([4]; NADH 6.25 μM): 235674 RLU | Avg RLU ([4]; NADH 12.5 μM): 465875 RLU | Avg RLU ([4]; NADH 25 μM): 608014 RLU | Avg RLU ([4]; NADH 50 μM): 687602 RLU | Avg RLU ([4]; NADH 100 μM): 663944 RLU | First Reading With menadione [5, 19]: 3527 RLU | First Reading Without menadione [5, 20]: 5900 RLU | Last Reading With menadione [5, 21]: 5062 RLU | Last Reading Without menadione [5, 22]: 39855 RLU | Avg RLU [6, 23]: 7809 RLU | Avg RLU ([6]; reaction time 2 min): 150745 RLU | Avg RLU ([6]; reaction time 5 min): 206822 RLU | Avg RLU ([6]; reaction time 10 min): 305968 RLU | Avg RLU ([6]; reaction time 15 min): 366592 RLU | Avg RLU ([6]; reaction time 25 min): 499283 RLU | Avg RLU ([6]; reaction time 30 min): 529063 RLU | Avg RLU ([6]; reaction time 40 min): 544475 RLU | Avg RLU ([6]; reaction time 50 min): 599165 RLU | Avg RLU ([6]; reaction time 60 min): 571954 RLU

CC1=CC(=O)C(C)=C(C(C)(C)CC(=O)N(C)CCN(C)C(=O)Oc2ccc3c(c2)Oc2cc(OC(=O)N(C)CCN(C)C(=O)CC(C)(C)C4=C(C)C(=O)C=C(C)C4=O)ccc2C32OC(=O)c3ccccc32)C1=O [PBI 4413, Bis-quinone trimethyllock diamine fluorescein]
FLUs ([7]; 0 μM NADH, 60 min): 39 FLUs | FLUs [7, 24]: 7397 FLUs | Fluorescence time course, Rat ([7]; 2 min): 180 FLUs | Fluorescence time course, Rat ([7]; 4 min): 419 FLUs | Fluorescence time course, Rat ([7]; 5 min): 545 FLUs | Fluorescence time course, Rat ([7]; 10 min): 1091 FLUs | Fluorescence time course, Rat ([7]; 20 min): 2151 FLUs | Fluorescence time course, Rat ([7]; 30 min): 3407 FLUs | Fluorescence time course, Rat ([7]; 40 min): 4669 FLUs | Fluorescence time course, Rat ([7]; 50 min): 6127 FLUs | Fluorescence time course, Rat ([7]; 60 min): 7397 FLUs | Fluorescence time course, Rat ([7]; 70 min): 9925 FLUs | Fluorescence time course, Rat ([7]; 80 min): 10959 FLUs | Fluorescence time course, Rat ([7]; 90 min): 12101 FLUs | Fluorescence time course, Rat ([7]; 100 min): 13732 FLUs | Fluorescence time course, Rat ([7]; 110 min): 15434 FLUs | Fluorescence time course, Rat ([7]; 120 min): 16666 FLUs | FLUs ([8]; 0 μM NADH, 60 min): 255 FLUs | FLUs [8, 24]: 2517 FLUs | Fluorescence time course, Clostridium ([8]; 2 min): 264 FLUs | Fluorescence time course, Clostridium ([8]; 4 min): 457 FLUs | Fluorescence time course, Clostridium ([8]; 5 min): 698 FLUs | Fluorescence time course, Clostridium ([8]; 10 min): 1195 FLUs | Fluorescence time course, Clostridium ([8]; 20 min): 2167 FLUs | Fluorescence time course, Clostridium ([8]; 30 min): 2896 FLUs | Fluorescence time course, Clostridium ([8]; 40 min): 3329 FLUs | Fluorescence time course, Clostridium ([8]; 50 min): 3519 FLUs | Fluorescence time course, Clostridium ([8]; 60 min): 3664 FLUs | Fluorescence time course, Clostridium ([8]; 70 min): 3803 FLUs | Fluorescence time course, Clostridium ([8]; 80 min): 3841 FLUs | Fluorescence time course, Clostridium ([8]; 90 min): 3798 FLUs | Fluorescence time course, Clostridium ([8]; 100 min): 3801 FLUs | Fluorescence time course, Clostridium ([8]; 110 min): 3820 FLUs | Fluorescence time course, Clostridium ([8]; 120 min): 3821 FLUs | reduction of substrate in live cells (confocal images) [9]: only reduced once inside cells

CC1=C(C)C(=O)C(C(C)(C)CC(=O)N(C)c2ccc(COC(=O)Nc3ccc4nc(C5=N[C@@H](C(=O)O)CS5)sc4c3)cc2)=C(C)C1=O [PBI 4550, Quinone trimethyllock-N-methyl-luciferin carbamate]
Avg RLU With NADH [2]: 62987 RLU | Avg RLU Without NADH [2]: 2337 RLU | S/B [2]: 27 | Avg RLU With NADH [3]: 25644 RLU | Avg RLU Without NADH [3]: 2597 RLU | S/B [3]: 10 | First Reading With menadione [5]: 1786 RLU | First Reading Without menadione [5]: 16495 RLU | Last Reading With menadione [5]: 2393 RLU | Last Reading Without menadione [5]: 100603 RLU

CC1=C(C)C(=O)C(C(C)(C)CC(=O)N(C)CC(C)(C)CN(C)C(=O)Oc2ccc3nc(C4=N[C@@H](C(=O)O)CS4)sc3c2)=C(C)C1=O [PBI 4565, Quinone trimethyllock-N,N′,2,2-tetramethylpropanediamine carbamate luciferin]
Avg RLU ([1]; NADH no, diaphorase no): 801 RLU | Avg RLU [1, 10]: 860 RLU | Avg RLU [1, 11]: 891 RLU | Avg RLU [1, 12]: 98349 RLU | Avg RLU With NADH [2, 13]: 48903 RLU | Avg RLU Without NADH [2, 14]: 479 RLU | S/B [2, 15]: 102 | Avg RLU With NADH [3, 16]: 18559 RLU | Avg RLU Without NADH [3, 17]: 646 RLU | S/B [3, 18]: 29 | Avg RLU ([4]; NADH 0 μM): 967 RLU | Avg RLU ([4]; NADH 0.006 μM): 1120 RLU | Avg RLU ([4]; NADH 0.012 μM): 1412 RLU | Avg RLU ([4]; NADH 0.024 μM): 2300 RLU | Avg RLU ([4]; NADH 0.049 μM): 3065 RLU | Avg RLU ([4]; NADH 0.098 μM): 4931 RLU | Avg RLU ([4]; NADH 0.195 μM): 8863 RLU | Avg RLU ([4]; NADH 0.39 μM): 16200 RLU | Avg RLU ([4]; NADH 0.78 μM): 13828 RLU | Avg RLU ([4]; NADH 1.56 μM): 29258 RLU | Avg RLU ([4]; NADH 3.125 μM): 63621 RLU | Avg RLU ([4]; NADH 6.25 μM): 128719 RLU | Avg RLU ([4]; NADH 12.5 μM): 258360 RLU | Avg RLU ([4]; NADH 25 μM): 294331 RLU | Avg RLU ([4]; NADH 50 μM): 287306 RLU | Avg RLU ([4]; NADH 100 μM): 306242 RLU | First Reading With menadione [5, 19]: 324 RLU | First Reading Without menadione [5, 20]: 564 RLU | Last Reading With menadione [5, 21]: 446 RLU | Last Reading Without menadione [5, 22]: 4407 RLU | Avg RLU [6, 23]: 1294 RLU | Avg RLU ([6]; reaction time 2 min): 41615 RLU | Avg RLU ([6]; reaction time 5 min): 69945 RLU | Avg RLU ([6]; reaction time 10 min): 117067 RLU | Avg RLU ([6]; reaction time 15 min): 154427 RLU | Avg RLU ([6]; reaction time 25 min): 252212 RLU | Avg RLU ([6]; reaction time 30 min): 262123 RLU | Avg RLU ([6]; reaction time 40 min): 278567 RLU | Avg RLU ([6]; reaction time 50 min): 328037 RLU | Avg RLU ([6]; reaction time 60 min): 330433 RLU

From patent US9951372B2, “Compounds and methods for assaying redox state of metabolically active cells and methods for measuring NAD(P)/NAD(P)H” (PROMEGA CORPORATION, priority 2011, dated 2018)
